The source of these data is patent US7205413B2, “Solvates and polymorphs of ritonavir and methods of making and using the same” (TransForm Pharmaceuticals, Inc., priority 2002, dated 2007).

“Also recorded” adds a separate entry of the source. Like-named read-outs stand apart in the source and are kept apart here.

The conditions of data set [1]: data for Forms I and II obtained from Chemburkar; cited from earlier work.
For data set [2] the following is noted: crystalline form, oral; cited from earlier work.
A short description of data set [3]: Thermal Gravimetric Analysis (TGA) weight loss. It counts as physicochemical. The following applies: heated 10° C./min under dry nitrogen. The source says:
TGA data were collected for each of the forms using a Q500 Thermogravimetric Analyzer (TA Instruments, 109 Lukens Drive, New Castle, Del. 19720), which uses as its control software Advantage for QW-Series, version 1.0.0.78, Thermal Advantage Release 2.0, © 2001 (TA instruments—Waters LLC). An aliquot of the sample was transferred into a platinum sample pan (Pan part # 952019.906; TA Instruments, 109 Lukens Drive, New Castle, Del. 19720). The pan was placed on the loading platform and was then automatically loaded in to the apparatus using the control software. Thermograms were typically obtained by individually heating the sample at 10° C./min from 25° C. to 300° C. under flowing dry nitrogen (compressed nitrogen, grade 4.8, BOC Gases, 575 Mountain Avenue, Murray Hill, N.J. 07974-2082), with a sample purge flow rate of 60 ml/min and a balance purge flow rate of 40 ml/min. Thermal transitions (weight changes) were viewed and analyzed using the analysis software Universal Analysis 2000 for Windows 95/95/2000/NT, version 3.1E; Build 3.1.0.40, © 1991–2001 (TA instruments—Waters LLC), provided with the instrument.
Using the DSC and TGA data obtained for Ritonavir Forms III, IV, and V, and published data for Forms I and II, the different thermal characteristics of each of the forms of Ritonavir were determined. These characteristics are provided below in Table 1: […]

Data set [4] can be described thus: Conversion of solid form when left in the crystallization mixture. It counts as physicochemical. The protocol: In particular: (A) is a representative X-ray diffraction pattern of Ritonavir(I); (B) is an X-ray diffraction pattern of a sample of Ritonavir(V) after being left in the crystallization mixture for approximately 16 hours, with arrows indicating peaks that signify the presence of Ritonavir(I); and (C) is a representative X-ray diffraction pattern of Ritonavir(V). […] In particular: (A) provides a DSC trace of Ritonavir(I); (B) provides a DSC trace of a sample of Ritonavir(V) after being left in the crystallization mixture for approximately 16 hours, wherein two peaks are observed corresponding to Forms I and V; and (C) is a representative DSC trace of Ritonavir(V). Ritonavir(V) is readily prepared from solvent systems (e.g., binary solvent systems) comprised of an acetate and acetonitrile. In particular, it was discovered that after Ritonavir is dissolved in such a solvent system at an elevated temperature (e.g., about 70° C.), the slow cooling of the resulting mixtures (e.g., at a rate of about 5° C./minute until a temperature of about 5° C. is reached) typically yields crystals of Ritonavir(V), which can be isolated by filtration and optionally dried by air. Specific solvent systems comprise from about 25 to about 50 volume percent acetonitrile.

Data set [5] can be described thus: Conversion of solid form on contact with aqueous media. The format is physicochemical. From the text:
Ritonavir(IV) can be prepared from Ritonavir(III). In a particular method, Ritonavir(III) is contacted with an aqueous medium for an amount of time sufficient to effect the change. For example, Ritonavir(III) placed on a vacuum filter can be washed with deionized water, thereby providing Ritonavir(IV).

In the case of `CC(C)c1nc(CN(C)C(=O)N[C@H](C(=O)N[C@@H](Cc2ccccc2)C[C@H](O)[C@H](Cc2ccccc2)NC(=O)OCc2cncs2)C(C)C)cs1` (single isomer, unassigned) [Form I, 10-hydroxy-2-methyl-5-(1-methylethyl)-1-[2-(1-methylethyl)-4-thiazolyl]-3,6-dioxo-8,11-bis(phenylmethyl)-2,4,7,12-tetraazatridecan-13-oic acid, 5-thiazolylmethyl ester, [5S-(5R*,8R*,10R*,11R*)]], in data set [1], the “TGA % weight loss (up to 130° C.)” value is on record as below 0.3%. In addition, the bioavailability result in data set [2] is on record as “not bioavailable; also recorded: poor bioavailability”.

As to `CC(C)c1nc(CN(C)C(=O)N[C@H](C(=O)N[C@@H](Cc2ccccc2)C[C@H](O)[C@H](Cc2ccccc2)NC(=O)OCc2cncs2)C(C)C)cs1` (relative stereo) [Form V, 10-hydroxy-2-methyl-5-(1-methylethyl)-1-[2-(1-methylethyl)-4-thiazolyl]-3,6-dioxo-8,11-bis(phenylmethyl)-2,4,7,12-tetraazatridecan-13-oic acid, 5-thiazolylmethyl ester, [5S-(5R*,8R*,10R*,11R*)]], the “TGA % weight loss (up to 130° C.)” value in data set [3] (listed as V) is listed as below 0.3%. For the same compound, the “form conversion when left in crystallization mixture (X-ray diffraction, DSC)” value in data set [4] (approximately 16 hours at nucleation temperature of 5° C.) is recorded as “formed Ritonavir(I)”. The “form conversion on prolonged time in crystallization mixture” value in data set [4] (prolonged period of time (hours to days), listed as Ritonavir(V)) is “form a mixture of Forms V and I; also recorded: provides Ritonavir Form I”.

`CC(C)c1nc(CN(C)C(=O)N[C@H](C(=O)N[C@@H](Cc2ccccc2)C[C@H](O)[C@H](Cc2ccccc2)NC(=O)OCc2cncs2)C(C)C)cs1` (relative stereo) [Form III, 10-hydroxy-2-methyl-5-(1-methylethyl)-1-[2-(1-methylethyl)-4-thiazolyl]-3,6-dioxo-8,11-bis(phenylmethyl)-2,4,7,12-tetraazatridecan-13-oic acid, 5-thiazolylmethyl ester, [5S-(5R*,8R*,10R*,11R*)]]: the “TGA % weight loss (up to 130° C.)” value in data set [3] (listed as III) is 30—60%. Further, in data set [5] (washed or incubated in aqueous media), the “form conversion while washed or incubated in aqueous media (DSC trace, FIG. 17)” value was “conversion of Ritonavir Form III to Form IV, and subsequently to Form I”.

Consider `CC(C)c1nc(CN(C)C(=O)N[C@H](C(=O)N[C@@H](Cc2ccccc2)C[C@H](O)[C@H](Cc2ccccc2)NC(=O)OCc2cncs2)C(C)C)cs1` (relative stereo) [Form IV, 10-hydroxy-2-methyl-5-(1-methylethyl)-1-[2-(1-methylethyl)-4-thiazolyl]-3,6-dioxo-8,11-bis(phenylmethyl)-2,4,7,12-tetraazatridecan-13-oic acid, 5-thiazolylmethyl ester, [5S-(5R*,8R*,10R*,11R*)]], for which, in data set [3] (listed as IV), the “TGA % weight loss (up to 130° C.)” value is recorded as 4—9%. The “form conversion on exposure to an aqueous environment” value in data set [5] (aqueous environment, extended time, about 15 to about 60 minutes) is “converts to Ritonavir Form I”. For the same compound, in data set [5] (prolonged exposure to aqueous environment), the “form conversion on prolonged exposure to an aqueous environment” value is recorded as “converts the compound to Ritonavir Form II”.

In the case of `CC(C)c1nc(CN(C)C(=O)N[C@H](C(=O)N[C@@H](Cc2ccccc2)C[C@H](O)[C@H](Cc2ccccc2)NC(=O)OCc2cncs2)C(C)C)cs1` (single isomer, unassigned) [Form II, 10-hydroxy-2-methyl-5-(1-methylethyl)-1-[2-(1-methylethyl)-4-thiazolyl]-3,6-dioxo-8,11-bis(phenylmethyl)-2,4,7,12-tetraazatridecan-13-oic acid, 5-thiazolylmethyl ester, [5S-(5R*,8R*,10R*,11R*)]], the “TGA % weight loss (up to 130° C.)” value in data set [1] is below 0.3%. Also, the bioavailability result in data set [2] is reported as “poor bioavailability”.
